{"source": "paper PMC6332320", "about": "“Factors Influencing Oral Bioavailability of Thai Mango Seed Kernel Extract and Its Key Phenolic Principles” (Molecules, 2015)", "key": {"Caco-2 cell lysates": {"tested_on": "Caco-2 cell lysates", "test": "Biological stability in Caco-2 cell lysates", "assay_type": "in vitro ADME, human", "settings": "for stability in HBSS at pH 6 (blank control) / stability in Caco-2 cell lysates / stability in inactive Caco-2 cell lysates: individual compound 100 µM; for stability in HBSS at pH 6 (blank control): HBSS pH 6, up to 24 h; for stability in Caco-2 cell lysates: active cell lysates, within 24 h; for stability in inactive Caco-2 cell lysates: inactive (heated) cell lysates", "description": "Caco-2 cells were cultured in T75 flasks at a seeding density of 2 × 10^6 cells/flask for 12–15 days. The cell lysate was freshly prepared by washing the cells twice with ice-cold HBSS at pH 6 (12 mL). The cells were then collected by scraping and resuspending in ice-cold HBSS at pH 6 (7.5 mL/flask). The cell suspension was vortexed and sonicated in an ice water bath for 30 min to obtain the lysate, which was kept on ice until use, and its cellular protein concentration was determined using a BCA™ protein assay kit (Thermo Fisher Scientific, Rockford, IL, USA) with bovine serum albumin as a reference standard.\nMany phenolic compounds were subject to sulfation and glucuronidation by Caco-2 cells at concentrations higher than 20 μM [16, 21, 43] and the metabolites of GA, MG and PGG could not be observed in Caco-2 transport experiment. Therefore, the concentration of the standard pure compounds used in this study was higher than that used in the chemical stability experiment. After preparing the cell lysate, the test compounds were prepared by dissolution in HBSS at pH 6 and then added to the lysates for a final concentration of 1.08 mg/mL protein to obtain final individual concentrations of 100 μM for GA, MG and PGG and 0.75 mg/mL for MSKE, which is equivalent to concentrations of 55.12 ± 4.57 µM GA, 7.56 ± 0.85 µM MG and 110.02 ± 17.52 µM PGG. The mixtures were then incubated in a water bath at 37 °C for 24 h, and samples (50 µL for standard compounds, and 200 µL for MSKE) were collected at 0, 4, 6 and 24 h. Each sample was then added to an ice-cold 50% methanol (150 µL for GA, MG and PGG, and 600 µL for MSKE) to stop the reaction, vortexed and centrifuged at 15,500 rpm for 15 min, and the supernatant was injected into the UPLC for analysis.\n(§1) The chemical and biological stabilities of the phenolic compounds were expressed as the concentration of the analyte at different time points relative to the concentration of the same analyte at time zero multiplied by 100 (% recovery)."}, "in vitro": {"test": "in vitro", "assay_type": "in vitro ADME, rat", "settings": "Sprague-Dawley, pH 6, rat fecal lysates, 24 h; for recovery at 24 h, 100 µg/mL: as principle in MSKE 100 µg/mL, relative to HBSS, read-out: relative recovery after incubation with the fecal lysates", "description": "(§2) The rat fecal lysate was prepared according to the method of Niu et al. with slight modifications. Briefly, 3 g of feces was collected from SD rats (8–10 weeks, n = 6) were then washed with ice-cold 0.1 mM potassium phosphate buffer (KPi, 10 mL). After resuspension in ice-cold 0.1 mM KPi (20 mL), the feces were vortexed and sonicated in an ice water bath for 45 min. To obtain the fecal lysate, the mixture was centrifuged at 15,000 rpm at 4 °C for 30 min. The supernatant was collected and maintained at –80 °C until use. The protein concentration in the fecal lysate was determined using a BCA™ protein assay kit.\n(§3) The prepared fecal lysate was thawed and diluted with ice-cold HBSS at pH 6 to obtain a final concentration of 0.5 mg/mL protein for each test. […] The mixtures were then incubated in water bath at 37 °C for 24 h. After samples (200 μL) were collected at each specific time point (0, 1, 2, 8, and 24 h), the reaction was stopped by adding ice-cold methanol (50 μL). The samples were then vortexed and centrifuged at 15,500 rpm for 15 min, and the supernatant was injected into the UPLC for analysis.\nas §1"}, "rat fecal lysates": {"tested_on": "rat fecal lysates", "test": "in vitro", "assay_type": "in vitro ADME", "settings": "for recovery after incubation with inactive fecal lysates and HBSS at pH 6 / recovery after incubation with fecal lysates: as principle in MSKE 100 µg/mL; for recovery after incubation with fecal lysates / stability in inactive rat fecal lysates or HBSS at pH 6: 24 h", "description": "as §2, §3, §1"}, "[1]": {"test": "Caco-2 transepithelial transport experiment", "assay_type": "in vitro ADME, human", "settings": "human", "description": "The transport experiment using Caco-2 monolayer was performed according to the criteria in our laboratory as previously reported with slight modification. Briefly, the cell monolayers were prepared by seeding 400,000 cells onto a polycarbonate insert, which has a surface area and pore size of 4.2 cm^2 and 3 μm, respectively (Nunc™, Thermo Fisher Scientific, Waltham, MA, USA). Cells were maintained in a humidified atmosphere at 37 °C (90% humidity and 5% CO2) and fed every other day. After 19 to 22 days post-seeding, the cell monolayers were used in the experiments. Before the experiment, the monolayers were quickly washed twice with pre-warmed HBSS at pH 7.4 (37 °C). The integrity of each monolayer was then verified by measuring the transepithelial electrical resistance (TEER) using a Millicell® ERS meter (Millipore, Bedford, MA, USA), and layers with TEER values less than 400 Ω/cm^2 relative to that of the blank insert were discarded. Then, the monolayers were incubated with the HBSS buffer at 37 °C for 1 h, and the incubation buffer was then aspirated. The test compounds were dissolved in HBSS at pH 6 to obtain final concentrations for the individual compounds (20 μM), mixture (20 μM) and MSKE (0.25 mg/mL), which were then loaded onto the A or B side (2.6 mL) as the donor side. A 2.6 mL aliquot of HBSS at pH 6 without the test compounds was loaded into the other side as the receiver side. After incubation at 37 °C, 0.6 mL of sample was collected from the receiver side at indicated times (60, 120, 180 and 240 min), and the same volume of receiver medium was replaced after each sampling. At the end of the experiment, the cells were washed twice with ice-cold HBSS at pH 6. The cells in each well were then collected and resuspended in 600 μL of HBSS at pH 6, and sonicated in an ice water bath at an output of 9 W for 30 min to obtain the cell lysates. The lysate was divided into the following aliquots: (1) 20 μL for quantitative protein assessment using a BCA™ protein assay kit and (2) 580 μL for quantitative test compounds. The samples collected from the transport study were stored at −20 °C until the UPLC or LC–MS/MS analysis. The experiments were performed in triplicate.\nThe apparent permeability coefficient (Papp, cm/s) of each compound was calculated according to the following equation (Equation (1)): (1) Papp= dQ/dt×1/AC0 where dQ/dt is the compound permeation rate (nmol/s), A denotes the membrane surface area, and C0 is the initial concentration on the donor side (µM). The efflux ratio was calculated according to the following equation (Equation (2)): (2) Efflux ratio= Papp BA(mean)/Papp AB(mean) where Papp BA (mean) and Papp AB (mean) are the average apparent permeability coefficients of each compound from side B to side A, and from side A to side B, respectively."}}, "note": "Where two headings read alike, the source gives them in different places.", "data": [{"compound": "O=C(O)c1cc(O)c(O)c(O)c1", "note": "[GA, Gallic acid]", "values": [{"measurement": "stability in HBSS at pH 6 (blank control)", "setting": "Caco-2 cell lysates", "result": "stable"}, {"measurement": "stability in Caco-2 cell lysates", "setting": "Caco-2 cell lysates", "result": "degraded"}, {"measurement": "stability in inactive Caco-2 cell lysates", "setting": "Caco-2 cell lysates; 24 h", "result": "stable"}, {"measurement": "recovery at 24 h, 100 µg/mL", "setting": "in vitro", "result": 167, "unit": "%"}, {"measurement": "maximum GA concentration increase after hydrolysis of PGG", "setting": "rat fecal lysates; PGG 10 µM incubated with rat fecal lysates", "result": "approximately 4 fold"}, {"measurement": "recovery after incubation with inactive fecal lysates and HBSS at pH 6", "setting": "rat fecal lysates", "result": "increased recoveries"}, {"measurement": "recovery after incubation with fecal lysates", "setting": "rat fecal lysates; rat fecal lysates", "result": "increased recoveries"}, {"measurement": "stability in inactive rat fecal lysates or HBSS at pH 6", "setting": "rat fecal lysates; individual compound 10 µM", "result": "not significantly different from the initial concentrations"}, {"measurement": "Papp A→B at 240 min", "setting": "[1]; Caco-2, pH 6, Papp A to B", "result": "1.46 ± 0.21", "unit": "×10⁻⁶ cm/s"}, {"measurement": "Papp B→A at 240 min", "setting": "[1]; Caco-2, pH 6, Papp B to A", "result": "8.04 ± 0.43", "unit": "×10⁻⁶ cm/s"}, {"measurement": "Papp B→A at 240 min, 20 µM", "setting": "[1]; Caco-2, pH 6, Papp B to A", "result": "1.02 ± 0.29", "unit": "×10⁻⁶ cm/s"}]}, {"compound": "COC(=O)c1cc(O)c(O)c(O)c1", "note": "[MG, methyl gallate]", "values": [{"measurement": "relative recoveries after incubation with Caco-2 cell lysates", "setting": "Caco-2 cell lysates; as principle in MSKE 0.75 mg/mL, 24 h, relative to HBSS", "result": "decreased relative recoveries"}, {"measurement": "stability in HBSS at pH 6 (blank control)", "setting": "Caco-2 cell lysates", "result": "stable"}, {"measurement": "stability in Caco-2 cell lysates", "setting": "Caco-2 cell lysates", "result": "degraded"}, {"measurement": "stability in inactive Caco-2 cell lysates", "setting": "Caco-2 cell lysates; 24 h", "result": "stable"}, {"measurement": "recovery at 24 h, 100 µg/mL", "setting": "in vitro; rat fecal lysate", "result": 54.7, "unit": "%"}, {"measurement": "recovery at 24 h, 10 µM", "setting": "in vitro; rat fecal lysate, mixture of GA, MG and PGG 10 µM each, read-out: recovery after incubation with the fecal lysates", "result": 55.4, "unit": "%"}, {"measurement": "recovery after incubation with inactive fecal lysates and HBSS at pH 6", "setting": "rat fecal lysates", "result": "increased recoveries"}, {"measurement": "recovery after incubation with fecal lysates", "setting": "rat fecal lysates; rat fecal lysates", "result": "increased recoveries"}, {"measurement": "stability in inactive rat fecal lysates or HBSS at pH 6", "setting": "rat fecal lysates; individual compound 10 µM", "result": "stable"}, {"measurement": "time to complete degradation in fecal lysates", "setting": "rat fecal lysates; individual compound 10 µM, rat fecal lysates", "result": "≤ 8", "unit": "h"}, {"measurement": "stability in inactive fecal lysates", "setting": "rat fecal lysates; mixture of GA, MG and PGG 10 µM each, PGG after 8 h", "result": "good stabilities"}, {"measurement": "Papp A→B at 240 min", "setting": "[1]; Caco-2, pH 6, as principle in MSKE 0.25 mg/mL, HBSS pH 6, read-out: Papp A to B", "result": "17.6 ± 1.54", "unit": "×10⁻⁶ cm/s"}, {"measurement": "Papp B→A at 240 min", "setting": "[1]; Caco-2, pH 6, as principle in MSKE 0.25 mg/mL, HBSS pH 6, read-out: Papp B to A", "result": "11.3 ± 0.31", "unit": "×10⁻⁶ cm/s"}, {"measurement": "efflux ratio at 240 min", "setting": "[1]; Caco-2, pH 6, as principle in MSKE 0.25 mg/mL, Papp BA/Papp AB, read-out: Efflux Ratios", "result": 0.66}, {"measurement": "efflux ratio at 240 min, 20 µM", "setting": "[1]; Caco-2, pH 6, in mixture 20 μM, Papp BA/Papp AB, read-out: Efflux Ratios", "result": 0.51}, {"measurement": "Papp A→B at 240 min, 20 µM", "setting": "[1]; Caco-2, pH 6, in mixture of GA, MG, PGG 20 μM, HBSS pH 6", "result": "12.5 ± 0.63", "unit": "×10⁻⁶ cm/s"}, {"measurement": "Papp B→A at 240 min, 20 µM", "setting": "[1]; Caco-2, pH 6, in mixture of GA, MG, PGG 20 μM, HBSS pH 6, read-out: Papp B to A", "result": "6.33 ± 0.57", "unit": "×10⁻⁶ cm/s"}, {"measurement": "Papp A→B at 240 min, 20 µM", "setting": "[1]; Caco-2, pH 6, individual compound 20 μM, HBSS pH 6", "result": "13.6 ± 0.4", "unit": "×10⁻⁶ cm/s"}, {"measurement": "Papp B→A at 240 min, 20 µM", "setting": "[1]; Caco-2, pH 6, individual compound 20 μM, HBSS pH 6, read-out: Papp B to A", "result": "7.02 ± 1.11", "unit": "×10⁻⁶ cm/s"}, {"measurement": "efflux ratio at 240 min, 20 µM", "setting": "[1]; Caco-2, pH 6, individual compound 20 μM, Papp BA/Papp AB, read-out: Efflux Ratios", "result": 0.52}]}]}
